Data reported in paper PMC5268383, “Inhibition of STAT3 by Anticancer Drug Bendamustine” (PLoS ONE, 2017).

How the values were obtained:
[1] = system: MDA-MB-468 cells (high P-STAT3); assay: WST cell proliferation assay, MDA-MB-468; assay type: cell-based, human; settings: 0.1-100 μM, 48 h, WST-8
Description: Cells were plated in a 96-well tissue culture plate (1000 cells per well) and incubated for 48 h. After incubation, the cells were treated with vehicle, 0.1–100 μM BENDA, or HP2 for 48 h. Samples were assayed in triplicate. After incubation, WST-8 solution (10 μL; Dojindo Molecular Technologies, Rockville, MD, USA) was added to each well and incubated at 37°C for 4 h, and the absorbance was read at 450 nm.

[2] = system: c-myc mRNA in MDA-MB-468 cells; assay: RT-PCR of c-myc mRNA; assay type: cell-based, human; settings: 8 h
rhSTAT3 = biological target: T1, rhSTAT3 (Homo sapiens, UniProt P40763); assay: Competition assay with cysteine-blocking reagent Alexa Fluor 488 C5 maleimide; assay type: binding; settings: 2 h, 10 μM Alexa Fluor 488 C5 maleimide
T1 construct: Full-length cDNAs were obtained from a human cDNA library by PCR; Avi-tag (biotinylated in BirA-BL21) (N); made in house; host or cells: Escherichia coli BirA-BL21
T1 sequence (P40763 whole entry): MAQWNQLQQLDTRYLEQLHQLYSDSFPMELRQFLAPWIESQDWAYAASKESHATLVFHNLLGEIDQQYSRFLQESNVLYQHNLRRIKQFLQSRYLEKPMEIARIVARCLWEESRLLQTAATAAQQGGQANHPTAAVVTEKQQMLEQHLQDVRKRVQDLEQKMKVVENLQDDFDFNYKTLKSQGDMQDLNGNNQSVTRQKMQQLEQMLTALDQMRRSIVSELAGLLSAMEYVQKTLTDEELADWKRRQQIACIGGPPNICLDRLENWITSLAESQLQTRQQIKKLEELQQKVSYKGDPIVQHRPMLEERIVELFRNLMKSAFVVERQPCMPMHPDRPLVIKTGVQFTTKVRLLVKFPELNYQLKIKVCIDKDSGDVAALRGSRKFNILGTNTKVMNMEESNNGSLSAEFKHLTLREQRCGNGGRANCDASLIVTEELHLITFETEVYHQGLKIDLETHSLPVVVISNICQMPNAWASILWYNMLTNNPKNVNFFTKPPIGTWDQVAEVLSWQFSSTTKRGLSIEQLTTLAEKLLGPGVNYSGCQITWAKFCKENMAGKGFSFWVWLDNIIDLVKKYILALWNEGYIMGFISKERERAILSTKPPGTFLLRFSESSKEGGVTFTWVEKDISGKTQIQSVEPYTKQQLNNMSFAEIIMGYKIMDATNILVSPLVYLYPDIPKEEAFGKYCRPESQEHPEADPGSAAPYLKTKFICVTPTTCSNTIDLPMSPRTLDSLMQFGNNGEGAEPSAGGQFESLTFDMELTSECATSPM
Description: rhSTAT3 (0.89 μM) in 100 mM HEPES was incubated with 10 μM Alexa Fluor 488 C5 maleimide (Invitrogen, Paisley, UK), a thiol-reactive probe, in the presence or absence of 50 or 100 μM BENDA or HP2 for 2 h at room temperature. Samples were diluted in SDS-PAGE sample buffer without boiling or 2-mercaptoethanol and run on an SDS-PAGE gel. The protein was transferred to a nitrocellulose membrane and then blotted with Ni-HRP. The Alexa-labeled rhSTAT3 was analyzed by fluorescence (excitation/emission: 493/516 nm) and western blotting with Ni-HRP.

[3] = system: STAT3-Y705 phosphorylation in MDA-MB-468 cells; assay: Western blotting of STAT3-Y705 phosphorylation; assay type: cell-based, human; settings: MDA-MB-468, 50 or 100 μM, 24 h
Description: Cells were treated with PhosphoSafe Extraction Reagent. Total proteins (40 μg) were subjected to SDS-PAGE and then transferred onto a nitrocellulose membrane. Membranes were blocked in 5% skim milk in TBS/0.1% Tween 20, incubated with primary antibodies diluted at 1:1000 in 1.5% skim milk in TBS (pH 7.4)/0.1% Tween 20 overnight at 4°C, and then incubated with HRP-conjugated secondary antibodies diluted at 1:5000 in TBS (pH 7.4)/0.1% Tween 20 for 1 h at room temperature. Immunoblots were developed with a chemiluminescent substrate.

[4] = biological target: T2, STAT3 Cys712 mutant (C712A) (Homo sapiens, UniProt P40763, C712A); assay: SH2 binding AlphaScreen assay with Cys712 mutant recombinant STAT3; settings: 100 μM BENDA, 375 nM mutant STAT3, 30 min
T2 construct: Full-length cDNAs were obtained from a human cDNA library by PCR; Avi-tag (N); 6His-tag (N); made in house; host or cells: Escherichia coli (pET-28a; host inferred to be the same BirA-BL21 as for wild type)
T2 sequence (P40763 whole entry C712A): as the sequence (P40763 whole entry) above, with C712A counted along it
Description: Point mutations were introduced into recombinant human STAT3 (rhSTAT3) by inverse PCR. We mutated Cys468, Cys542, Cys550, Cys687, and Cys712 near the SH2 domain to alanine. Inverse PCR was performed by using pBluescript II KS (+) as a template, KOD-Plus-ver. 2 (Toyobo, Osaka, Japan), and the following oligonucleotide primer set: Cys468 (forward: 5’-TCCAACATCG CTCAGATGCC AAATG-3’, reverse: 5′-GATCACCACA ACTGGCAAGG AGTGG-3′); Cys542 (forward: 5′-GAATTATTCAGGGGCTCAGATCACATGGGCTAAAT-3′, reverse: 5′-ACACCAGGTC CCAAGAGTTT CTCTGCC-3′); Cys550 (forward: 5′-GCTAAATTTG CCAAAGAAAA CATGGCTGGC-3′, reverse: 5′-CCATGTGATC TGACACCCTG AATAATTCA CACC-3′); Cys687 (forward: 5′-GGAAAGTATG CTCGGCCAGA GAGCCAG-3′, reverse: 5′-GAATGCCTCC TCCTTGGGAA TGTCAGG-3′); and Cys712 (forward: 5′-AAGTTTATCG CTGTGACACC AACGACCTGC-3′, reverse: 5′-GGTCTTCAGG TATGGGGCAG CGCTAC-3′). Inverse PCR (1 × PCR buffer, 1.5 mM MgSO4, 15 pmol 5′ primer and 3′ primer, 0.2 mM dNTPs, 50 ng STAT3 cDNA, 1 U KOD Plus) was performed under the following conditions: 2 min at 94°C, (10 s at 98°C, and 6.5 min at 68°C)×7 cycles. The amplified fragment was ligated by using Ligation High ver. 2 (Toyobo). The resultant plasmid was cloned into the HindIII/XhoI sites of modified pET-28a (+). The nucleotides coding for human mutant STAT3 in pET-28a (+) were named mutant STAT3 His-Avi-pET28a (+). […]

[5] = biological target: T3, STAT3-DNA complex (c-myc promoter) in MDA-MB-468 cells (Homo sapiens, UniProt P40763); assay: ChIP assay, c-myc promoter binding by STAT3; assay type: cell-based; settings: MDA-MB-468, 8 h; BENDA 25, 50, 100 μM, HP2 50, 100 μM
T3 construct: endogenous in cells; host or cells: MDA-MB-468
T3 sequence (P40763 2-770 limits assumed, one chain of several): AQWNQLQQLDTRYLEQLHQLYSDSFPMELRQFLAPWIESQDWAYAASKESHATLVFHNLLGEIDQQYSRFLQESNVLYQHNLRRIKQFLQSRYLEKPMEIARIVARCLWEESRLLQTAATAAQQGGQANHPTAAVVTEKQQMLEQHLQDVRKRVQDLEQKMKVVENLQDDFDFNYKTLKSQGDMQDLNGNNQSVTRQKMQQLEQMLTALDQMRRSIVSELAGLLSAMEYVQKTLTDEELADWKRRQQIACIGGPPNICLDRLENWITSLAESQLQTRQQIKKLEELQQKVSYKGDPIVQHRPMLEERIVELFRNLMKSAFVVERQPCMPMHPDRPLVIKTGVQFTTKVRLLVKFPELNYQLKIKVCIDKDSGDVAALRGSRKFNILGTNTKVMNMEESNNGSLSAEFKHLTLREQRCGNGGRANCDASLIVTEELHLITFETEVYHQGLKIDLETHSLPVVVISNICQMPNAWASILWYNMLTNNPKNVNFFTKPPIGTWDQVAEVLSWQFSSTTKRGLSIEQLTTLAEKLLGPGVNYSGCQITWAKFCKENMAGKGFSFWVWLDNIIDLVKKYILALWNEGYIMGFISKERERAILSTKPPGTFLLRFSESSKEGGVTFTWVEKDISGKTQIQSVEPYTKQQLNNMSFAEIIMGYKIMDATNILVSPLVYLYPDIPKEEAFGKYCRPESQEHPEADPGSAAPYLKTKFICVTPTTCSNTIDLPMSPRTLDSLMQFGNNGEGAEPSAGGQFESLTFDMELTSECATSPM
Description: A ChIP assay was performed with an ExactaChIP Human/Mouse STAT3 ChIP kit (R&D Systems, Minneapolis, MN, USA). MDA-MB-468 cancer cells were fixed with 1% formaldehyde and treated with the lysis buffer. After sonication, anti-STAT3 antibody or normal mouse IgG was added to the extract, followed by precipitation with Protein G Plus/Protein A Agarose Suspension. The eluted DNA fraction was used for PCR with human c-myc primers.

Cn1c(CCCC(=O)O)nc2cc(N(CCCl)CCCl)ccc21 [BENDA, 4-{5-[bis(2-chloroethyl)amino]-1-methyl-2-benzimidazolyl} butyric acid]
Inhibition of proliferation of MDA-MB-468 cells [1]: inhibited proliferation
c-myc mRNA expression, % of vehicle treatment ([2]; MDA-MB-468, 50 μM): 72%
c-myc mRNA expression, % of vehicle treatment ([2]; MDA-MB-468, 100 μM): 33%
Fluorescence intensity of Alexa-labeled rhSTAT3 (reduced to) (rhSTAT3; 50 μM compound): 62%
Fluorescence intensity of Alexa-labeled rhSTAT3 (reduced to) (rhSTAT3; 100 μM compound): 52%
Phosphorylation of STAT3-Y705 [3]: inhibited the phosphorylation of STAT3-Y705 in a concentration-dependent manner
inhibition at 100 µM [4]: 25%
Amplified c-myc promoter band in STAT3 ChIP [5]: reduced
